Format in all cases: cell-based, murine
Assay [1] addresses T1, AR (Homo sapiens, UniProt P10275).
T1 sequence (P10275 1-920): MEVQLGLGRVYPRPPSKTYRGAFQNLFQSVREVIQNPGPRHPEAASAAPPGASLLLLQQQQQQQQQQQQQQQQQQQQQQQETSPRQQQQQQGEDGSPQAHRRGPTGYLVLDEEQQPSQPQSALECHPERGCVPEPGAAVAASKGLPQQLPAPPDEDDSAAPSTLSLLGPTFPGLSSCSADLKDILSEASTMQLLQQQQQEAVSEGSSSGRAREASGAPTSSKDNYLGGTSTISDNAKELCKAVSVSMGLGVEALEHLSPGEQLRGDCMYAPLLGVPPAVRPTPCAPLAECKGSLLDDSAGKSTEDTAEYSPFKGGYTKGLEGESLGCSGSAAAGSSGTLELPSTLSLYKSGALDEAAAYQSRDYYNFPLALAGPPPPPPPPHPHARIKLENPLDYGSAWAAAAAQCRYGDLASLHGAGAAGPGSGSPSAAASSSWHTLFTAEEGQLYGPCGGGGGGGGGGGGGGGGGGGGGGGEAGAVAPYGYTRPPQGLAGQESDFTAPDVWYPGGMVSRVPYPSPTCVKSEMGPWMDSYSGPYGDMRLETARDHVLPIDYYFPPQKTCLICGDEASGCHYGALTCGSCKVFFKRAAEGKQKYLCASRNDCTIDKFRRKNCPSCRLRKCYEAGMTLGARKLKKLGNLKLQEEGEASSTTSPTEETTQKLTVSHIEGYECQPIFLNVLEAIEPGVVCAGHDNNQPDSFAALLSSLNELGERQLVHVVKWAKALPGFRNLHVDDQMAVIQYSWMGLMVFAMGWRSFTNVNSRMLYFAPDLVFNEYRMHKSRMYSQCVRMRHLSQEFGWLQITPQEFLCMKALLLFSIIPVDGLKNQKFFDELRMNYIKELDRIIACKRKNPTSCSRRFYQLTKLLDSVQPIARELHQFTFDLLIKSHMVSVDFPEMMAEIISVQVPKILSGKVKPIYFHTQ
Put plainly: FRET-based AR conformation change reporter (CARY) in 3T3L1 adipose cells. The settings on record: 3T3L1 adipose-derived cells. On the set-up: Full length AR with cyan fluorescent protein (CFP) or yellow fluorescent protein (YFP) fused to either end (CARY); expressed in transfected cells. Here is the method: Creation of stable C-AR-Y reporter cell lines. Cell lines listed above were either transfected with a plasmid or a virus containing the CFP-AR-YFP construct preceding an IRES and hygromycin resistance gene and clonal stable cell lines selected. Qualification criteria for the transfected cell lines were described by Jones et al, ACS Chem Biol, 3(7):412-8 (2008).
Screen for AR-modulators. Screening was performed essentially as described by Jones et al, ACS Chem Biol, 3(7):412-8 (2008). Briefly, C-AR-Y reporter GTI-7 were transferred to 96 well plates and treated with library compounds for 24 hours. […] The compounds to be tested were from the NCI/DTP Open Chemical Repository's Approved Oncology Drugs Set II, Diversity Set II and Mechanistic Set. […] After 24 hours, medium was aspirated and FRET was measured as previously described using a monochromator-based fluorescence plate reader (M1000, Tecan, Inc.). Jones et al, ACS Chem Biol, 3(7):412-8 (2008). […]
In order to identify potential cell-type selective AR modulators, the FRET-based assay of AR conformation change was utilized. […] This produces an accurate and quantifiable read-out of AR activity. […] Candidate hits were then further evaluated by dose response. […] In addition to FRET, AR transcriptional activity was also assessed in several cell lines by transfecting cells with a luciferase reporter driven by the human PSA promoter. […]

Assay [2] has as its system AR. Put plainly: Western blot of AR levels in GT1-7 CARY cells. The text has this: (§1) Western Blot. Cell lysates was separated on a 6% SDS page gel and transferred to a nitrocellulose membrane. The membrane was blocked for one hour in 5% skim milk dissolved in TBS-T and probed with the following antibodies ([…]): FoxM1 (rabbit, GeneTex), AR: 441 (mouse, Santa Cruz Biotechnology), β-catenin (rabbit 9562, Cell Signaling Technology), p84 (mouse, GeneTex) and actin (mouse, Santa Cruz Biotechnology). Horse radish peroxidase linked secondary antibodies were used along with ECL reagents for visualization. Western blots were quantified using Quantity One analysis software (BioRad).
(§2) It has been previously reported that thiostrepton causes decreased levels of FOXM1. Hegde et al, Nat Chem, 3(9):725-31 (2011); Gartel, Front Oncol, 3:150 (2013). […] The nuclear association between FOXM1 and β-catenin increases the transcriptional activity of both factors. Zhang et al, Cancer Cell, 20(4):427-42 (2011). β-catenin is a key AR coactivator in a variety of cells. Yang, J Biol Chem, 277(13):11336-44 (2002); Truica et al, Cancer Res, 60(17):4709-13 (2000). The inventors believed that thiostrepton could inhibit AR activity by limiting access to nuclear β-catenin via FOXM1 depletion. […] As expected, control actin protein was observed primarily in cytoplasmic fraction.

Assay [3] relates to FOXM1. Briefly: Western blot of FOXM1 levels in GT1-7 CARY cells. The note with it: relative to p84 loading control, FIG. 3C.
Excerpt: as §1, §2
On the technique in general: Immunoblotting shows a protein as a band on a membrane.

Molecules are shown by their SMILES.

For the molecule `C=C(NC(=O)C(=C)NC(=O)c1csc(C2=N[C@@H]3c4csc(n4)[C@H]4NC(=O)c5csc(n5)[C@H]([C@](C)(O)[C@@H](C)O)NC(=O)[C@H]5CSC(=N5)/C(=C/C)NC(=O)[C@H]([C@@H](C)O)NC(=O)c5csc(n5)[C@]3(CC2)NC(=O)[C@H](C)NC(=O)C(=C)NC(=O)C(=C)NC(=O)[C@H](C(C)C)N[C@@H]2C=Cc3c([C@H](C)O)cc(nc3[C@H]2O)C(=O)O[C@@H]4C)n1)C(N)=O` [NSC285116, siomycin A], the “AR inhibitor activity in words” value in assay [1] is recorded as “little to no activity”.

Regarding `C=C(NC(=O)C(=C)NC(=O)c1csc(C2=N[C@@H]3c4csc(n4)[C@H]4NC(=O)c5csc(n5)[C@H]([C@](C)(O)[C@@H](C)O)NC(=O)[C@H]5CSC(=N5)/C(=C/C)NC(=O)[C@H]([C@@H](C)O)NC(=O)c5csc(n5)[C@]3(CC2)NC(=O)[C@H](C)NC(=O)C(=C)NC(=O)[C@H](C)NC(=O)[C@H]([C@@H](C)CC)N[C@@H]2C=Cc3c([C@H](C)O)cc(nc3[C@H]2O)C(=O)O[C@@H]4C)n1)C(N)=O` [thiostrepton], the “AR levels (Western blot)” value in assay [2] was “not consistently decreased”. Moreover, the “FOXM1 levels (Western blot)” value in assay [3] is recorded as “slightly decreased”.

Values taken from US11167007B2, “FOXM1 modulators and uses thereof” (City of Hope, priority 2016, dated 2021).
